According to patent publication EP0427518B1, “NMDA-Blocking compounds, pharmaceutical compositions, their preparation and use” (priority 1989, dated 1991):

Columns and labels:
[1] = more active than Δ-1-tetrahydrocannabionol; cited from earlier work
C-57 Black mice = assay: Inhibition of tremorogenic, convulsive and lethal effects of NMDA in C-57 Black mice; type: in vivo; conditions: for mice in which the tremorogenic, convulsive and lethal effects were prevented: dose 5 mk/kg, NMDA 100 mg/kg; for blockade of NMDA-induced tremor, seizure and lethality: at about 2.5 mg/kg body weight, summary statement, mouse strain not given
Description: Sabra mice (an Israeli heterogenous strain) were pretreated with either vehicle alone (control) or HU-211 (1.25 or 2.50 mg/kg; s.c.), followed by NMDA (200 mg/kg; s.c.). […] Similar experiments were performed using C-57 Black mice, in which the dose of NMDA was decreased (100 mg/kg; s.c.). Counteraction by HU-211 of the NMDA-induced effects was more pronounced in the latter strain (which is more sensitive than Sabra mice to the effects of NMDA). In the control series of both strains, which received NMDA without HU-211, all animals died in less than 10 min. following seizure onset.
The experiments described in Table 2 were repeated with C-57 Black mice, HU-211 replaced by the compound of formula (II) (compound Vb, U.S. Patent No. 4,179,517) and the compound of formula (IIa)(compound XIb, ibid.). NMDA (100 mg/kg) was administered to the mice.
In addition, the experiments were repeated with the novel compound HU-247.

Sabra mice = assay: Induction of stereotypy (stereotypy gradient of Feigenbaum et al.); type: in vivo; conditions: at about 25 mg/kg body weight; summary statement covering stereotypy, locomotor and heart rate tests; mice
Source text: As will be shown hereafter, the pharmacological profile of HU-211, and other compounds constituting the active ingredients of the present compositions, includes the induction of stereotypy, locomotor hyper-activity and tachycardia in mice (Table 1). […] This possibility was explored by examining the activity of the compounds in protecting against the tremorogenic, convulsive and lethal effects of NMDA and NMDA agonists in mice. Such effects are counteracted by virtually all NMDA antagonists.

Structure (SMILES) | cannabimimetic activity relative to Δ-1-tetrahydrocannabionol [1] [times] | mice in which the tremorogenic, convulsive and lethal effects of NMDA were fully prevented (C-57 Black mice; C-57 Black mice, dose 2.5 mg/kg, same conditions as Table 2) | induction of stereotypy, locomotor hyperactivity and tachycardia (Sabra mice) | mice in which the tremorogenic, convulsive and lethal effects were prevented (C-57 Black mice; C-57 Black mice) | blockade of NMDA-induced tremor, seizure and lethality (C-57 Black mice)
CCCCCCC(C)(C)c1cc(O)c2c(c1)OC(C)(C)[C@@H]1CC=C(CO)C[C@@H]21 [HU-210, 7-hydroxy-Δ⁶-tetrahydrocannabionol 1,1-dimethylheptyl homolog, reference compound] | ~100 | – | – | – | –
CCCCCCC(C)(C)c1cc(OC(C)=O)c2c(c1)OC(C)(C)[C@H]1CC=C(CO)C[C@H]21 [HU-247] | – | 6 out of 7 | – | – | –
CCCCCCC(C)(C)c1cc(O)c2c(c1)OC(C)(C)[C@H]1CC=C(C)C[C@H]21 [II] | – | – | induce stereotypy, locomotor hyperactivity and tachycardia | 4 out of 6 | potent blockers
CCCCCCC(C)(C)c1cc(O)c2c(c1)OC(C)(C)[C@H]1CCC(C)=C[C@H]21 [IIa] | – | – | induce stereotypy, locomotor hyperactivity and tachycardia | 4 out of 6 | potent blockers
